Patent US4008267A, “3,3'-Di(sulfonyloxy-group-containing)substituted benzidine derivatives” (AB Kabi, priority 1974, dated 1977)
Values after ≈ are worked out from the molar mass of the structure shown.

Assays:
[1] = Color development of chromogen-reactive-indicator composition with glucose stock solutions (glucose oxidase/peroxidase); details: 0.2 mM chromogen in reagent composition
Description: Glucose was used as the control or test substance to be tested for in these tests.
______________________________________
Chromogen used 0.2 mM (i.e. millimolar),
glucose oxidase 3000 units,
Stock or test solutions were prepared containing glucose in concentrations of 25, 50, 100, 200, 300, and 400 mg. per 100 ml.
Before the final determination, this thus diluted solution is diluted further 1 part to 11 with the just described chromogen reagent solution. Thereafter the development of color is measured at 450 mm.
When this particular dilution pattern is applied to the foregoing stock or test stem solutions, finally diluted solutions with the following respective glucose contents are obtained: 2.2, 4.3, 8.6, 13.0, and 17.3 mg. per liter.

[2] = Light stability: extinction decrease after irradiation of the oxidized chromogen; format: physicochemical
Description: In connection with this composition portion of the invention, laboratory tests were conducted by a standard method for evaluating different chromogens.

[3] = Color stability at extinction maximum; format: physicochemical; details: 0.2 mM chromogen; 4 hours the longest period observed
[4] = Absorption wave length of the oxidized chromogen; format: physicochemical
[5] = Solubility of the chromogens in water / at pH 7, reduced and oxidized state; details: for solubility: pH 7, water
[6] = Stability of isolated product in air; format: physicochemical; details: greyish crystal powder
Description: d. 10 gm. of this 8,8'-bis(2-oxo-1,2,3,4,5,6-hexahydro-1-benzazocine) are refluxed for 12 hours with 200 ml. of concentrated hydrochloric acid. The solution is evaporated to a small volume, diluted with water, following which the pH is adjusted to 5 to 6 by adding concentrated sodium acetate solution.

[7] = background, cited from earlier work
[8] = background, cited from earlier work; remark: listed apart in the source
[9] = 450 nm (o-tolidine 430 nm), pH value 6.5
[10] = Solubility at pH 7, oxidized (colored), pH 7, oxidized state
[11] = Solubility at pH 7, reduced (uncolored), pH 7, reduced state

Row | Structure (SMILES) | Precipitation of chromogen [1] | Extinction decrease % after irradiation 5 min. under 10 Watt tungsten lamp [2, 9] [%] | Color stability at extinction maximum, optional reading time [3] | Wave length range in nm ([4]; pH value 6.5) [nm] | Solubility in water (in words) [5] | solubility [5, 10] [µg/mL] | solubility [5, 11] [µg/mL] | Discoloration in the air [6] | Light absorption wave length in oxidized state [7] | Decline of extinction when exposed to light ([8]; oxidized, exposed to light) | Sensitivity of color to light ([8]; oxidized) | Extinction decrease % after irradiation 5 min. under 10 Watt tungsten lamp ([2]; 630 nm, pH value 4.5) | Wave length range in nm ([4]; pH value 4.5) [nm] | Absorption of temporarily appearing color ([7]; temporarily appearing color) | Sensitivity of color to pH and temperature ([8]; temporarily appearing color at about 630 nm)
1 | Cl.Cl.Nc1ccc(-c2ccc(N)c(OCCCC(=O)O)c2)cc1OCCCC(=O)O [Example 1(d), Gamma, gamma'-(4,4'-diamino-3,3'-biphenyldioxy)dibutyric acid dihydrochloride] | no precipitation of chromogen occurred | 2 | up to 4 hours | 450 | very good | 700 | 70000 |  |  |  |  |  |  |  | 
2 | Nc1ccc(-c2ccc(N)c(OCCCS(=O)(=O)O)c2)cc1OCCCS(=O)(=O)O [Example 3(b), Gamma,gamma'-(4,4'-diamino-3,3'-biphenyldioxy)dipropane sulfonic acid] | no precipitation of it occurs | 2 | up to 4 hours | 450 | quite good | 120 (≈ 261 µM) | 12000 (≈ 26100 µM) |  |  |  |  |  |  |  | 
3 | Nc1ccc(-c2ccc(N)c(CCCCC(=O)O)c2)cc1CCCCC(=O)O [Example 6, Delta,delta'-(4,4'-diamino-3,3'-biphenyl)divaleric acid] |  |  |  |  |  |  |  | readily discolors in the air |  |  |  |  |  |  | 
4 | COc1cc(-c2ccc(N)c(OC)c2)ccc1N [o-dianisidine] |  | 26 |  | 450 |  | 10 (≈ 40.9 µM) | 110 (≈ 450 µM) |  | about 450 nm | up to 25 per cent | sensitive to light |  |  |  | 
5 | Cc1cc(-c2ccc(N)c(C)c2)ccc1N [o-tolidine] |  | 1 |  | 430 |  | 7 (≈ 33 µM) | 130 (≈ 612 µM) |  | about 450 nm |  |  | unstable | 630 | about 630 nm | very sensitive to variations in pH and temperature
